For data set [1] the following is noted: p.o. in rat (single housing for SR(±)MDMA); cited from earlier work.
For data set [2] the following is noted: cited from earlier work.
For data set [3] the following is noted: repeated administration, 50 mg/kg bw, mice (Curry 2018); cited from earlier work.
The conditions of data set [4]: rodent models, doses far above allometrically-scaled clinical doses (Curry 2018); cited from earlier work.
Data set [5] is described as follows: Maximum recommended starting dose (MRSD). Particulars: expected value.
Data set [6] can be described thus: Subjective report of R-MDMA HCL (Example 11). To be noted: oral 250 (±) 10 mg.
Experimental: Purpose: To determine the physiological and subjective effects of the hydrochloride salt of R-MDMA (oral administration, 250 (±) 10 mg), supplemented with acetyl-L-carnitine (ALCAR), alpha lipoic acid (ALA), ascorbate to reduce or prevent neurotoxicity.
Data set [7] in a line: Calculated human equivalent dose (HED) of the NOAEL. Particulars: for Human Equivalent Dose (HED): NOAEL (human), total dose / Human Equivalent Dose (HED): neurotoxicology NOAEL (human), total dose: assuming a 60 kg human; for NOAEL: human.
For data set [8] the following is noted: rat, p.o., cited from earlier work.
The conditions of data set [9]: dog, female and male, p.o.; cited from earlier work.
The conditions of data set [10]: cited from earlier work. The source holds these as a separate data set.
The conditions of data set [11]: doses of 100-125 mg; cited from earlier work.
The mark [12] stands for this setting: brain imaging studies, 100 mg, healthy volunteers.

Read-outs that look alike come from different tables or passages of the source.

As usually defined, the NOAEL is the highest tested level that showed no adverse finding.

Consider `CN[C@H](C)Cc1ccc2c(c1)OCO2` [R-MDMA, (R)-1-(1,3-Benzodioxol-5-yl)-N-methyl-propan-2-amine], for which the “No adverse effect level (NOAEL)” value in data set [1] was “NOAEL: >200 mg/kg”. Moreover, in data set [2] (Fallon 1999, Fitzgerald 1990), the “AUC in comparison to S-MDMA” value is recorded as “increased AUC” and the “half-life in comparison to S-MDMA” value is reported as “longer half-life”. Besides, in data set [3], the evidence of neurotoxicity entry was “did not show evidence of neurotoxicity”. For the same compound, the temperature fluctuations result in data set [4] is listed as “no significant temperature fluctuations”. Besides, the “Expected MSRD” value in [5] is >300 mg:. Besides, in data set [6], the hyperthermia or hypothermia result was “No noticeable hyperthermia or hypothermia” and the jaw clenching entry was “No incidence of jaw clenching”. Further, in data set [6] (Subject A), the “onset of noticeable effects” value is “around 40 minutes” and the “time of peak of the experience” value is listed as “around two hours after ingestion”. For the same compound, in data set [6] (monitor of low precision, result inconclusive), the blood pressure result was “increased for a short period”. The heart rate in data set [6] (short period, from 85 resting) is 115-125. In data set [7], the “Human Equivalent Dose (HED): NOAEL (human), total dose” value is reported as over 4100 mg; the “Human Equivalent Dose (HED): neurotoxicology NOAEL (human), total dose” value is 450 mg*; the NOAEL is 7.4 mg/kg.

`CN[C@@H](C)Cc1ccc2c(c1)OCO2` [S(+)MDMA, (S)-1-(1,3-Benzodioxol-5-yl)-N-methylpropan-2-amine]: in [5], the “Expected MSRD” value amounted to 150 mg. Moreover, in [7], the “Human Equivalent Dose (HED): NOAEL (human), total dose” value is under 2080 mg; the “Human Equivalent Dose (HED): neurotoxicology NOAEL (human), total dose” value is reported as 342.9 mg*; the NOAEL was 6 mg/kg.

Turning to `CNC(C)Cc1ccc2c(c1)OCO2` (racemic) [racemic MDMA, 3,4-methylenedioxymethamphetamine], the “Neurotoxicology NOAEL” value in data set [8] (female) is given as 25 mg/kg/week p.o1. Moreover, the “Neurotoxicology NOAEL” value in [8] (male) is on record as 20 mg/kg/week p.o1. Besides, in [9], the “Neurotoxicology NOAEL” value is given as 4 mg/kg/week p.o. Besides, in data set [10] (Harris 2002), the “onset of subjective effects” value is given as “approximately 45 mins”, the “time of peak subjective effects” value was 1.5 to 2 h and the “time to decrease to baseline values” was 5 to 6 h. In [10] (setting [12]), the “duration of subjective effects” value is listed as “approximately 4.5 hours” and the “time of peak subjective effects” value is 1.67 h. Besides, the duration of effects in data set [10] (one dose) is 4 to 5 h. Moreover, in data set [10] (patients with PTSD (Mithoefer 2013)), the “time of peak drug effects” value is 2 to 5 h. Further, in data set [10] (patients with PTSD, after the initial dose (Mithoefer 2013)), the onset of action was 45 to 75 min. In addition, the duration of effects in data set [10] (with the booster dose) is 5 to 6 h. Besides, in data set [11], the “increase in blood pressure (diastolic)” value was 14.4-25 mmg and the “increase in heart rate” value is on record as 26-30 bpm. Further, in [1], the “No adverse effect level (NOAEL)” value is on record as “NOAEL: 100 mg/kg”. Also, in data set [2] (doses 100-125 mg, humans), the “time to peak plasma concentration” value was 2 to 3 h. Also, in data set [2] (similar for doses 50-125 mg), the elimination half-life was 7 to 9 h. In addition, in data set [7], the “Human Equivalent Dose (HED): NOAEL (human), total dose” value is 2080 mg and the “Human Equivalent Dose (HED): neurotoxicology NOAEL (human), total dose” value is 342.9 mg*. In addition, the “Human Equivalent Dose (HED): NOAEL (human)” value in data set [7] (calculated from NOAEL) is given as 34 mg/kg →. In data set [7] (calculated from neurotoxicology NOAEL), the “Human Equivalent Dose (HED): neurotoxicology NOAEL (human)” value is reported as “NOAEL (human): 6 mg/kg”.

The record behind these values is patent US11939312B2, “Enantiomeric entactogen compositions and their use” (Arcadia Medicine, Inc., priority 2021, dated 2024).
